Test results as given in patent US12498382B2, “Biomarkers for vitiligo” (INCYTE CORPORATION, priority 2019, dated 2025).

Test system: HaCaT cells
Assay: Concentrations of inflammatory mediators produced by HaCaT cells stimulated with TNFα and IFNγ in presence/absence of JAK inhibitors (ProCarta)
Assay type: cell-based, human
Method: After 48 hours, cell culture media was removed from 24 well plates and replaced with 250 uL of media containing serial diluted drug, then incubated for 15 minutes at 37° C./5% CO2. […] The final concentration of Recombinant Human Interferon gamma and Recombinant Human Tumor Necrosis Factor alpha was 25 ng/mL of each cytokine. Cytokine stimulation added to wells containing drug brought the final concentrations for each drug treatment to 25 nM, 50 nM, 100 nM, and 200 nM. Treated plates were mixed by gentle agitation for 30 seconds then incubated for 24 hours at 37° C./5% CO2. At the end of the 24 hour incubation media was immediately removed from each plate.
Media was incubated with antibody conjugated beads designed to bind to the epitopes of specific target proteins and identify the bound protein through the bead's distinctive spectral pattern. Biotinylated detection antibodies, designed to bind to different epitopes of the same target proteins, and Streptavidin-PE are added to assay plates to quantify the amount of the target proteins. Assay plates were read on the Luminex 200 and data were expressed as Net Median Fluorescence Intensity. […] The concentration of each protein was extrapolated from the antigen standard curve and concentrations were expressed as pg/mL (Table 15).

[1] = TNFα 25 ng/mL + IFNγ 25 ng/mL, drug 25 nM
[2] = TNFα 25 ng/mL + IFNγ 25 ng/mL, drug 50 nM
[3] = TNFα 25 ng/mL + IFNγ 25 ng/mL, drug 100 nM
[4] = TNFα 25 ng/mL + IFNγ 25 ng/mL, drug 200 nM

For `Cc1n[nH]c(C)c1-c1cnn(C2(CC#N)CN(c3cc(F)c(C(=O)N[C@@H](C)C(F)(F)F)cc3F)C2)c1` [Cpc C], the BDNF concentration [1] was 4.01 ± 0.19 pg/mL, the EGF concentration [1] was 1.54 ± 0.13 pg/mL and the Eotaxin concentration [1] was 10.08 ± 0.15 pg/mL. The FGF-2 concentration [1] was 21.41 ± 1.39 pg/mL, the GM-CSF concentration [1] was 130 ± 3.15 pg/mL and the GRO alpha concentration [1] was 548.93 ± 27.91 pg/mL. The HGF concentration [1] was 13.66 ± 0.51 pg/mL, the IFN alpha concentration [1] was 0.25 ± 0.01 pg/mL and the bNGF concentration [1] was 7.86 ± 0.56 pg/mL. The BDNF concentration [2] was 4 ± 0.23 pg/mL, the EGF concentration [2] was 1.14 ± 0.17 pg/mL and the Eotaxin concentration [2] was 9.84 ± 0.25 pg/mL. The FGF-2 concentration [2] was 20.77 ± 1.37 pg/mL, the GM-CSF concentration [2] was 126.18 ± 3.4 pg/mL and the GRO alpha concentration [2] was 544.74 ± 37.71 pg/mL. For the same compound, the HGF concentration [2] was 13.04 ± 0.28 pg/mL, the IFN alpha concentration [2] was 0.26 ± 0 pg/mL and the bNGF concentration [2] was 6.86 ± 0.6 pg/mL. For the same compound, the BDNF concentration [3] was 4.24 ± 0.26 pg/mL, the EGF concentration [3] was 1.35 ± 0.18 pg/mL and the Eotaxin concentration [3] was 9.89 ± 0.22 pg/mL. It also gave an FGF-2 concentration [3] of 20.84 ± 1.31 pg/mL, a GM-CSF concentration [3] of 134.94 ± 4.45 pg/mL and a GRO alpha concentration [3] of 575.98 ± 43.22 pg/mL. The HGF concentration [3] was 13.53 ± 0.5 pg/mL, the IFN alpha concentration [3] was 0.26 ± 0 pg/mL and the bNGF concentration [3] was 6.93 ± 1.04 pg/mL. It also gave a BDNF concentration [4] of 3.97 ± 0.22 pg/mL, an EGF concentration [4] of 1.46 ± 0.17 pg/mL and an Eotaxin concentration [4] of 9.89 ± 0.21 pg/mL. For the same compound, the FGF-2 concentration [4] was 20.93 ± 1.37 pg/mL, the GM-CSF concentration [4] was 132.6 ± 3.95 pg/mL and the GRO alpha concentration [4] was 560.99 ± 43.32 pg/mL. It also gave an HGF concentration [4] of 13.6 ± 0.53 pg/mL, an IFN alpha concentration [4] of 0.26 ± 0 pg/mL and a bNGF concentration [4] of 5.7 ± 0.76 pg/mL. It also gave a BDNF concentration (no stimulation, drug 200 nM) of 5.7 ± 0.31 pg/mL, an EGF concentration (no stimulation, drug 200 nM) of 1.12 ± 0.14 pg/mL and an Eotaxin concentration (no stimulation, drug 200 nM) of 2.28 ± 0.07 pg/mL. For the same compound, the FGF-2 concentration (no stimulation, drug 200 nM) was 8.77 ± 0.79 pg/mL, the GM-CSF concentration (no stimulation, drug 200 nM) was 9.48 ± 1.48 pg/mL and the GRO alpha concentration (no stimulation, drug 200 nM) was 236.87 ± 11.04 pg/mL. For the same compound, the HGF concentration (no stimulation, drug 200 nM) was 4.74 ± 0.47 pg/mL, the IFN alpha concentration (no stimulation, drug 200 nM) was 0.2 ± 0.03 pg/mL and the IFN gamma concentration (no stimulation, drug 200 nM) was 3.81 ± 0.74 pg/mL. For the same compound, the bNGF concentration (no stimulation, drug 200 nM) was 3.73 ± 0.63 pg/mL.
`CC(O)c1nc2cnc3ccsc3c2n1C1CCC(CC#N)OC1` (centres unmarked) [Cpc D] gave a BDNF concentration [1] of 4.08 ± 0.26 pg/mL, an EGF concentration [1] of 1.49 ± 0.14 pg/mL and an Eotaxin concentration [1] of 9.82 ± 0.2 pg/mL. The FGF-2 concentration [1] was 22.89 ± 1.39 pg/mL, the GM-CSF concentration [1] was 126.24 ± 3.53 pg/mL and the GRO alpha concentration [1] was 539.42 ± 38.03 pg/mL. For the same compound, the HGF concentration [1] was 13.47 ± 0.45 pg/mL, the IFN alpha concentration [1] was 0.26 ± 0.01 pg/mL and the bNGF concentration [1] was 7.44 ± 0.63 pg/mL. The BDNF concentration [2] was 3.97 ± 0.25 pg/mL, the EGF concentration [2] was 1.31 ± 0.19 pg/mL and the Eotaxin concentration [2] was 9.58 ± 0.21 pg/mL. It also gave an FGF-2 concentration [2] of 20.96 ± 1.43 pg/mL, a GM-CSF concentration [2] of 124.89 ± 3.37 pg/mL and a GRO alpha concentration [2] of 555.54 ± 44.74 pg/mL. For the same compound, the HGF concentration [2] was 13.27 ± 0.45 pg/mL, the IFN alpha concentration [2] was 0.26 ± 0 pg/mL and the bNGF concentration [2] was 6.17 ± 0.74 pg/mL. It also gave a BDNF concentration [3] of 4.18 ± 0.28 pg/mL, an EGF concentration [3] of 1.23 ± 0.16 pg/mL and an Eotaxin concentration [3] of 10.02 ± 0.19 pg/mL. The FGF-2 concentration [3] was 21.77 ± 1.51 pg/mL, the GM-CSF concentration [3] was 133.19 ± 3.97 pg/mL and the GRO alpha concentration [3] was 578.28 ± 48.32 pg/mL. For the same compound, the HGF concentration [3] was 13.75 ± 0.4 pg/mL, the IFN alpha concentration [3] was 0.26 ± 0 pg/mL and the bNGF concentration [3] was 7.12 ± 0.8 pg/mL. It also gave a BDNF concentration [4] of 4.03 ± 0.28 pg/mL, an EGF concentration [4] of 1.45 ± 0.17 pg/mL and an Eotaxin concentration [4] of 9.85 ± 0.17 pg/mL. For the same compound, the FGF-2 concentration [4] was 20.96 ± 1.34 pg/mL, the GM-CSF concentration [4] was 130.42 ± 3.44 pg/mL and the GRO alpha concentration [4] was 564.53 ± 52.35 pg/mL. For the same compound, the HGF concentration [4] was 13.8 ± 0.48 pg/mL, the IFN alpha concentration [4] was 0.25 ± 0.02 pg/mL and the bNGF concentration [4] was 6.73 ± 0.61 pg/mL. The BDNF concentration (no stimulation, drug 200 nM) was 5.66 ± 0.38 pg/mL, the EGF concentration (no stimulation, drug 200 nM) was 1.24 ± 0.09 pg/mL and the Eotaxin concentration (no stimulation, drug 200 nM) was 2.08 ± 0.07 pg/mL. The FGF-2 concentration (no stimulation, drug 200 nM) was 8.19 ± 1.07 pg/mL, the GM-CSF concentration (no stimulation, drug 200 nM) was 8.49 ± 1.84 pg/mL and the GRO alpha concentration (no stimulation, drug 200 nM) was 234.42 ± 14.21 pg/mL. For the same compound, the HGF concentration (no stimulation, drug 200 nM) was 3.68 ± 0.39 pg/mL, the IFN alpha concentration (no stimulation, drug 200 nM) was 0.22 ± 0.03 pg/mL and the IFN gamma concentration (no stimulation, drug 200 nM) was 4.52 ± 0.68 pg/mL. For the same compound, the bNGF concentration (no stimulation, drug 200 nM) was 3.47 ± 0.48 pg/mL.
